According to patent US9655888B2, “Tricyclic alkene derivatives as HIV attachment inhibitors” (priority 2012, dated 2017):
Like-named read-outs stand apart in the source and are kept apart here.

Tested on: HIV-1 LAI envelope single-round infectious reporter virus
Assay: Single-round infectious HIV-1 LAI luciferase reporter virus infection of MT2 cells
Assay type: cell-based
Settings: Human immunodeficiency virus 1, MT2, 72 h
From the text: • Virus production—Human embryonic Kidney cell line, 293T (HEK 293T), was propagated in Dulbecco's Modified Eagle Medium (Invitrogen, Carlsbad, Calif.) containing 10% fetal bovine serum (FBS, Sigma, St. Louis, Mo.). The human T-cell leukemia cell MT2 (AIDS Research and Reference Reagent Program, Cat. 237) was propagated in RPMI 1640 (Invitrogen, Carlsbad, Calif.) containing 10% fetal bovine serum (FBS, Hyclone, Logan, Utah) • Virus infection—Single-round infectious reporter virus was produced by co-transfecting HEK 293T cells with plasmide expressing the HIV-1 LAI envelope along with a plasmid containing an HIV-1 LAI proviral cDNA with the envelope gene replaced by a firefly luciferase reporter gene (Chen et al., Ref 41). Transfections were performed using lipofectAMINE PLUS reagent as described by the manufacturer (Invitrogen, Carlsbad, Calif.). Experimental Procedure • 1. MT2 cells were plated in black, 384 well plates at a cell density of 5×10^3 cells per well in 25 μl RPMI 1640 containing 10% FBS. • 2. Compound (diluted in dimethylsulfoxide and growth medium) was added to cells at 12.5 μl/well, so that the final assay concentration would be ≦50 nM. • 3. 12.5 μl of single-round infectious reporter virus in Dulbecco's Modified Eagle Medium was added to the plated cells and compound at an approximate multiplicity of infection (MOI) of 0.01, resulting in a final volume of 50 μl per well. • 4. Virus-infected cells were incubated at 37 degrees Celsius in a CO2 incubator and harvested 72 h after infection. • 5. Viral infection was monitored by measuring luciferase expression in the infected cells using a luciferase reporter gene assay kit (Steady-Glo, Promega, Madison, Wis.) as described by the manufacturer. Luciferase activity was then quantified by measuring luminescence using an EnVision Multilabel Plate Readers (PerkinElmer, Waltham, Mass.). • 6. The percent inhibition for each compound was calculated by quantifying the level of luciferase expression in cells infected in the presence of each compound as a percentage of that observed for cells infected in the absence of compound and subtracting such a determined value from 100. • 7. An EC50 provides a method for comparing the antiviral potency of the compounds of the invention. The effective concentration for fifty percent inhibition (EC50) was calculated with the Microsoft Excel Xlfit curve fitting software. For each compound, curves were generated from percent inhibition calculated at 10 different concentrations by using a four parameter logistic model (model 205). Table 1 is the key for the data in Table 2.

[1] = read-out: EC50 Group from Table 1

COc1cnc(Cl)c2[nH]cc(C(=O)C(=O)N3CCC(=C4c5ccccc5CCc5ccccc54)CC3)c12 [Compound 1004]
EC50 [1]: < 500 nM

COc1cnc(-n2cnc(C)n2)c2[nH]cc(C(=O)C(=O)N3CCC(=C4c5ccccc5C=Cc5ccccc54)CC3)c12 [Compound 1001]
EC50: 0.28 nM
EC50 [1]: < 500 nM

O=C(C(=O)N1CCC(=C2c3ccc(Cl)cc3CCc3cccnc32)CC1)c1c[nH]c2c(Br)ccc(F)c12 [Compound 1008]
EC50 [1]: > 500 nM

O=C(C(=O)N1CCC(=C2c3ccccc3CCc3ccccc32)CC1)c1c[nH]c2ccccc12 [Compound 1003]
EC50: 692 nM
EC50 [1]: > 500 nM

COc1ccc(Br)c2[nH]cc(C(=O)C(=O)N3CCC(=C4c5ccccc5CCc5ccccc54)CC3)c12 [Compound 1006]
EC50: 95.3 nM
EC50 [1]: < 500 nM

O=C(C(=O)N1CCC(=C2c3ccccc3CCc3ccccc32)CC1)c1c[nH]c2c(Br)ccc(F)c12 [Compound 1007]
EC50 [1]: > 500 nM

COc1cnc(Cl)c2[nH]cc(C(=O)C(=O)N3CCC(=C4c5ccc(Cl)cc5CCc5cccnc54)CC3)c12 [Compound 1002]
EC50 [1]: < 500 nM

COc1cnc(-n2cncn2)c2[nH]cc(C(=O)C(=O)N3CCC(=C4c5ccccc5CCc5ccccc54)CC3)c12 [Compound 1005]
EC50 [1]: < 500 nM

COc1cnc(-n2cnc(C)n2)c2[nH]cc(C(=O)C(=O)N3CCC(=C4c5ccccc5CCc5ccccc54)CC3)c12 [Compound 1009]
EC50: 3.72 nM
EC50 [1]: < 500 nM

COc1cnc(-n2cnc(C)n2)c2[nH]cc(C(=O)C(=O)N3CCC(=C4c5ccc(Cl)cc5CCc5cccnc54)CC3)c12 [Compound 1010]
EC50 [1]: < 500 nM
